{
  "source": "patent US20240092727A1",
  "about": "“CRYSTALLINE 4-((L-VALYL)OXY)BUTANOIC ACID” (XWPHARMA LTD., priority 2022, published 2024)",
  "key": {"[1]": {"experiment": "Sealed storage stability, other studies, 36 months", "format": "physicochemical", "details": "25±2° C., for 36 months; stable = absorbs less than 2 wt % water and impurity content of less than 2 wt %", "text": "(§1) “Sealed storage stability” refers to the stability of a compound that is enclosed within two sealed polyethylene bags with a desiccant material placed between the two polyethylene bags and the two sealed polyethylene bags are enclosed within a sealed one-layer aluminum bag.\nStability is defined as the sample of crystalline 4-((L-valyl)oxy)butanoic acid absorbs less than 2 wt % water and an impurity content of less than 2 wt % for a period of time under the indicated sealed storage conditions."}, "[2]": {"experiment": "Sealed storage stability study (ICH Q1A (R2)), four storage conditions, 3- and 6-month timepoints", "format": "physicochemical", "set-up": "key to Crystalline Form: C = Conforms; N/A = Not Applicable", "details": "for Crystalline Form: XRPD; for Crystalline Form / Assay / Total Impurities / Water Content: sealed storage", "text": "as §1\nCrystalline 4-((L-valyl)oxy)butanoic acid was packaged in double low-density polyethylene (LDPE) zipper bags and sealed. The packaged samples were then placed within an aluminum foil outer bag (polyethylene, polyethylene terephthalate three-layer composite) and sealed. The fully packaged samples were placed in stability chambers for the duration of the sealed storage stability study.\nSealed storage stability studies were carried out under four sets of conditions external to the packaged crystalline 4-((L-valyl)oxy)butanoic acid: • 1. Accelerated conditions ([…], 75±5% RH). • 2. Intermediate storage condition ([…], 65±5% RH). • 3. Long-term storage condition (25±2° C., […]). • 4. 2-8° C. conditions.\nThe sealed storage stability of crystalline 4-((L-valyl)oxy)butanoic acid (1) was tested according to the International Council for Harmonization of Technical Requirements for Pharmaceuticals for Human Use (ICH) document Q1A (R2) “Stability Testing of New Drug Substances and Products.” Accordingly, samples were pulled at 3- and 6-month timepoints. The assay percentage of the crystalline 4-((L-valyl)oxy)butanoic acid was determined by electrochemical titration using acetic acid as the solvent and perchloric acid as the titrant. Water content was tested by Karl Fischer titration (Karl Fisher Titrator: Mettler V30). Impurities were measured by HPLC (HPLC Instrument: Waters Arc HPLC system with CAD; Column: Waters Atlantis T3, 4.6×150 mm, 3 μm). The samples were analyzed by XRPD analysis (XRPD Instrument: Bruker D8 advance). The sealed storage stability results of crystalline 4-((L-valyl)oxy)butanoic acid stored under the four storage conditions are summarized in Table 2."}, "[3]": {"details": "up to 6 months under all sealed storage conditions"}},
  "data": [
    {"compound": "CC(C)[C@H](N)C(=O)OCCCC(=O)O", "note": "[4-((L-valyl)oxy)butanoic acid]", "values": [
      {"measurement": "Sealed storage stability", "setting": "[1]", "value": "sealed storage stable"},
      {"measurement": "Crystalline Form", "setting": "[2]; 2-8° C., 6 M", "value": "C"},
      {"measurement": "Crystalline Form", "setting": "[2]; 2-8° C., D 0", "value": "C"},
      {"measurement": "Crystalline Form", "setting": "[2]; 25 ± 2° C., 60 ± 5% RH, 6 M", "value": "C"},
      {"measurement": "Crystalline Form", "setting": "[2]; 25 ± 2° C., 60 ± 5% RH, D 0", "value": "C"},
      {"measurement": "Crystalline Form", "setting": "[2]; 30 ± 2° C., 65 ± 5% RH, 3 M", "value": "C"},
      {"measurement": "Crystalline Form", "setting": "[2]; 30 ± 2° C., 65 ± 5% RH, 6 M", "value": "C"},
      {"measurement": "Crystalline Form", "setting": "[2]; 30 ± 2° C., 65 ± 5% RH, D 0", "value": "C"},
      {"measurement": "Crystalline Form", "setting": "[2]; 40 ± 2° C., 75 ± 5% RH, 6 M", "value": "C"},
      {"measurement": "Crystalline Form", "setting": "[2]; 40 ± 2° C., 75 ± 5% RH, D 0", "value": "C"},
      {"measurement": "Assay", "setting": "[2]; 2-8° C., 3 M", "value": 98.8, "unit": "wt %"},
      {"measurement": "Total Impurities", "setting": "[2]; 2-8° C., 3 M", "value": 0.4, "unit": "wt %"},
      {"measurement": "Water Content", "setting": "[2]; 2-8° C., 3 M", "value": 0.2, "unit": "wt %"},
      {"measurement": "Assay", "setting": "[2]; 2-8° C., 6 M", "value": 99.8, "unit": "wt %"},
      {"measurement": "Total Impurities", "setting": "[2]; 2-8° C., 6 M", "value": 0.2, "unit": "wt %"},
      {"measurement": "Water Content", "setting": "[2]; 2-8° C., 6 M", "value": 0.3, "unit": "wt %"},
      {"measurement": "Assay", "setting": "[2]; 2-8° C., D 0", "value": 99.4, "unit": "wt %"},
      {"measurement": "Total Impurities", "setting": "[2]; 2-8° C., D 0", "value": 0.3, "unit": "wt %"},
      {"measurement": "Water Content", "setting": "[2]; 2-8° C., D 0", "value": 0.1, "unit": "wt %"},
      {"measurement": "Assay", "setting": "[2]; 25 ± 2° C., 60 ± 5% RH, 3 M", "value": 98.8, "unit": "wt %"},
      {"measurement": "Total Impurities", "setting": "[2]; 25 ± 2° C., 60 ± 5% RH, 3 M", "value": 0.5, "unit": "wt %"},
      {"measurement": "Water Content", "setting": "[2]; 25 ± 2° C., 60 ± 5% RH, 3 M", "value": 0.2, "unit": "wt %"},
      {"measurement": "Assay", "setting": "[2]; 25 ± 2° C., 60 ± 5% RH, 6 M", "value": 99.3, "unit": "wt %"},
      {"measurement": "Total Impurities", "setting": "[2]; 25 ± 2° C., 60 ± 5% RH, 6 M", "value": 0.4, "unit": "wt %"},
      {"measurement": "Water Content", "setting": "[2]; 25 ± 2° C., 60 ± 5% RH, 6 M", "value": 0.3, "unit": "wt %"},
      {"measurement": "Assay", "setting": "[2]; 25 ± 2° C., 60 ± 5% RH, D 0", "value": 99.4, "unit": "wt %"},
      {"measurement": "Total Impurities", "setting": "[2]; 25 ± 2° C., 60 ± 5% RH, D 0", "value": 0.3, "unit": "wt %"},
      {"measurement": "Water Content", "setting": "[2]; 25 ± 2° C., 60 ± 5% RH, D 0", "value": 0.1, "unit": "wt %"},
      {"measurement": "Assay", "setting": "[2]; 30 ± 2° C., 65 ± 5% RH, 3 M", "value": 99.9, "unit": "wt %"},
      {"measurement": "Total Impurities", "setting": "[2]; 30 ± 2° C., 65 ± 5% RH, 3 M", "value": 0.4, "unit": "wt %"},
      {"measurement": "Water Content", "setting": "[2]; 30 ± 2° C., 65 ± 5% RH, 3 M", "value": 0.4, "unit": "wt %"},
      {"measurement": "Assay", "setting": "[2]; 30 ± 2° C., 65 ± 5% RH, 6 M", "value": 99.3, "unit": "wt %"},
      {"measurement": "Total Impurities", "setting": "[2]; 30 ± 2° C., 65 ± 5% RH, 6 M", "value": 0.4, "unit": "wt %"},
      {"measurement": "Water Content", "setting": "[2]; 30 ± 2° C., 65 ± 5% RH, 6 M", "value": 0.1, "unit": "wt %"},
      {"measurement": "Assay", "setting": "[2]; 30 ± 2° C., 65 ± 5% RH, D 0", "value": 99.4, "unit": "wt %"},
      {"measurement": "Total Impurities", "setting": "[2]; 30 ± 2° C., 65 ± 5% RH, D 0", "value": 0.3, "unit": "wt %"},
      {"measurement": "Water Content", "setting": "[2]; 30 ± 2° C., 65 ± 5% RH, D 0", "value": 0.1, "unit": "wt %"},
      {"measurement": "Assay", "setting": "[2]; 40 ± 2° C., 75 ± 5% RH, 3 M", "value": 98.8, "unit": "wt %"},
      {"measurement": "Total Impurities", "setting": "[2]; 40 ± 2° C., 75 ± 5% RH, 3 M", "value": 0.6, "unit": "wt %"},
      {"measurement": "Water Content", "setting": "[2]; 40 ± 2° C., 75 ± 5% RH, 3 M", "value": 0.1, "unit": "wt %"},
      {"measurement": "Assay", "setting": "[2]; 40 ± 2° C., 75 ± 5% RH, 6 M", "value": 99.3, "unit": "wt %"},
      {"measurement": "Total Impurities", "setting": "[2]; 40 ± 2° C., 75 ± 5% RH, 6 M", "value": 0.7, "unit": "wt %"},
      {"measurement": "Water Content", "setting": "[2]; 40 ± 2° C., 75 ± 5% RH, 6 M", "value": 0.3, "unit": "wt %"},
      {"measurement": "Assay", "setting": "[2]; 40 ± 2° C., 75 ± 5% RH, D 0", "value": 99.4, "unit": "wt %"},
      {"measurement": "Total Impurities", "setting": "[2]; 40 ± 2° C., 75 ± 5% RH, D 0", "value": 0.3, "unit": "wt %"},
      {"measurement": "Water Content", "setting": "[2]; 40 ± 2° C., 75 ± 5% RH, D 0", "value": 0.1, "unit": "wt %"},
      {"measurement": "Chemical stability of the crystalline sample", "setting": "[2]; [3]", "value": "chemically stable"},
      {"measurement": "Sealed storage stability", "setting": "[2]; [3]", "value": "stable"}
    ]}
  ]
}
